Assay results from patent publication US6737383B1, “Herbicidal oxadiazolidines” (priority 1999, dated 2004).

What was measured:
[1] = system: wheat; experiment: Test B pre/postemergence wheat; assay type: in vivo, Triticum aestivum; details: for Plant response rating, Wheat: Rate 250 g/ha
Method in brief: (§1)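 Test chemicals in a non-phytotoxic solvent mixture with surfactant were sprayed preemergence onto planted seeds and postemergence onto plants 2 to 18 cm tall (1- to 4-leaf stage). After twelve to sixteen days in a greenhouse, injury was visually rated against untreated controls from 0 (no effect) to 10 (complete control).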

[2] = system: velvetleaf; experiment: Test B pre/postemergence velvetleaf; assay type: in vivo, Abutilon theophrasti; details: for Plant response rating, Velvetleaf: Rate 250 g/ha
Method in brief: as §1

[3] = system: duck salad; experiment: Test B flood test duck salad; assay type: in vivo, Heteranthera limosa
Method in brief: (§2)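 Flood test on plants grown to the 2-leaf stage; treated plants kept in greenhouse twelve to sixteen days, then visually rated against controls on a 0 (no effect) to 10 (complete control) scale.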

[4] = system: blackgrass; experiment: Test B pre/postemergence blackgrass; assay type: in vivo, Alopecurus myosuroides
Method in brief: as §1

[5] = system: soybean; experiment: Test B pre/postemergence soybean; assay type: in vivo, Glycine max
Method in brief: as §1

[6] = system: surinam grass; experiment: Test B pre/postemergence surinam grass; assay type: in vivo, Brachiaria decumbens
Method in brief: as §1

[7] = system: wild oat; experiment: Test B pre/postemergence wild oat; assay type: in vivo, Avena fatua; details: for Plant response rating, Wild oats: Rate 250 g/ha
Method in brief: as §1

[8] = system: corn; experiment: Test B pre/postemergence corn; assay type: in vivo, Zea mays
Method in brief: as §1

[9] = system: bedstraw; experiment: Test B pre/postemergence bedstraw; assay type: in vivo, Galium aparine
Method in brief: as §1

[10] = system: rape; experiment: Test B pre/postemergence rape; assay type: in vivo, Brassica napus
Method in brief: as §1

[11] = system: sugar beet; experiment: Test B pre/postemergence sugar beet; assay type: in vivo, Beta vulgaris; details: for Plant response rating, Sugarbeets: Rate 250 g/ha
Method in brief: as §1

[12] = system: purple nutsedge; experiment: Test B pre/postemergence purple nutsedge; assay type: in vivo, Cyperus rotundus
Method in brief: as §1

[13] = system: rice; experiment: Test B flood test rice; assay type: in vivo, Oryza sativa
Method in brief: as §2

[14] = system: smallflower flatsedge; experiment: Test B flood test smallflower flatsedge; assay type: in vivo, Cyperus difformis
Method in brief: as §2

[15] = system: pigweed; experiment: Test B pre/postemergence pigweed; assay type: in vivo, Amaranthus retroflexus
Method in brief: as §1

[16] = system: crabgrass; experiment: Test B pre/postemergence crabgrass; assay type: in vivo, Digitaria sanguinalis
Method in brief: as §1

[17] = Postemergence, Rate 125 g/ha, scale of 0 to 10 where 0 is no effect and 10 is complete control
[18] = Preemergence, Rate 62 g/ha, scale 0 to 10 (0 no effect, 10 complete control)
[19] = Preemergence, Rate 125 g/ha, 0 is no effect, 10 is complete control
[20] = Preemergence, scale of 0 to 10 where 0 is no effect and 10 is complete control
[21] = Preemergence, Rate 500 g/ha, scale 0 to 10 (0 no effect, 10 complete control)
[22] = Rate 62 g/ha, Postemergence, scale of 0 to 10 where 0 is no effect and 10 is complete control
[23] = Postemergence, scale 0 to 10, 0 is no effect, 10 is complete control
[24] = Rate 500 g/ha, Postemergence, scale 0 to 10, 0 no effect, 10 complete control
[25] = Postemergence (flood test species), Rate 125 g/ha, scale of 0 to 10 where 0 is no effect and 10 is complete control
[26] = Rate 62 g/ha, Postemergence section, flood test species, scale of 0 to 10 where 0 is no effect and 10 is complete control
[27] = Rate 250 g/ha, headed Pre-emergence (flood test species), scale 0 to 10 (0 no effect, 10 complete control)
[28] = Rate 500 g/ha, headed Pre-emergence (flood test species), scale 0 to 10 (0 no effect, 10 complete control)
[29] = Rate 500 g/ha, listed under Postemergence (flood test species), scale 0 to 10, 0 no effect, 10 complete control
[30] = Rate 1000 g/ha, Pre-emergence (as headed), scale 0 to 10
[31] = Rate 2000 g/ha, Pre-emergence (as headed), scale 0 to 10
[32] = Postemergence, Rate 250 g/ha, scale 0 to 10, 0 no effect, 10 complete control
[33] = Preemergence, Rate 125 g/ha, scale 0 to 10 (0 no effect, 10 complete control)
[34] = Preemergence, Rate 250 g/ha, scale of 0 to 10 where 0 is no effect and 10 is complete control
[35] = Rate 250 g/ha, Postemergence, scale 0 to 10, 0 is no effect, 10 is complete control
[36] = Postemergence, Rate 62 g/ha, scale 0 to 10, 0 is no effect, 10 is complete control
[37] = Rate 125 g/ha, Postemergence, scale 0 to 10, 0 no effect, 10 complete control
[38] = Rate 250 g/ha, Postemergence (flood test), scale 0 to 10, 0 is no effect, 10 is complete control

Structure (SMILES): CCn1c(=O)on(C(=O)N(c2ccc(Cl)cc2)C(C)C)c1=O [Compound 108]
- Wheat plant response rating [1, 17]: 0
- Wheat plant response rating [1, 18]: 0
- Wheat plant response rating (0 to 10 scale) [1, 19]: 0
- Plant response rating, Wheat [1, 20]: 2
- Wheat plant response rating [1, 21]: 3
- Wheat plant response rating [1, 22]: 0
- Plant response rating, Wheat [1, 23]: 0
- Wheat plant response rating [1, 24]: 2
- Velvetleaf plant response rating [2, 17]: 4
- Velvetleaf plant response rating [2, 18]: 3
- Velvetleaf plant response rating (0 to 10 scale) [2, 19]: 4
- Plant response rating, Velvetleaf [2, 20]: 4
- Velvetleaf plant response rating [2, 21]: 5
- Velvetleaf plant response rating [2, 22]: 2
- Plant response rating, Velvetleaf [2, 23]: 4
- Velvetleaf plant response rating [2, 24]: 5
- Ducksalad plant response rating [3, 25]: 0
- Ducksalad plant response rating [3, 26]: 0
- Ducksalad plant response rating [3, 27]: 0
- Plant response rating, Ducksalad [3, 28]: 0
- Ducksalad plant response rating [3, 29]: 0
- Ducksalad plant response rating [3, 30]: 0
- Ducksalad plant response rating [3, 31]: 0
- Ducksalad plant response rating ([3]; flood test, listed under Postemergence, Rate 250 g/ha, scale 0 to 10, 0 no effect, 10 complete control): 0
- Blackgrass plant response rating [4, 17]: 7
- Blackgrass plant response rating [4, 32]: 7
- Blackgrass plant response rating [4, 18]: 5
- Plant response rating, Blackgrass [4, 33]: 7
- Plant response rating, Blackgrass [4, 34]: 9
- Blackgrass plant response rating [4, 21]: 10
- Blackgrass plant response rating [4, 22]: 4
- Blackgrass plant response rating [4, 24]: 8
- Soybean plant response rating [5, 17]: 3
- Soybean plant response rating [5, 18]: 0
- Plant response rating, Soybean [5, 33]: 0
- Plant response rating, Soybean [5, 34]: 0
- Soybean plant response rating [5, 21]: 2
- Soybean plant response rating [5, 22]: 1
- Plant response rating, Soybean [5, 35]: 5
- Soybean plant response rating [5, 24]: 5
- B. signalgrass plant response rating [6, 36]: 0
- B. signalgrass plant response rating [6, 32]: 3
- B. signalgrass plant response rating [6, 18]: 4
- Plant response rating, B. signalgrass [6, 33]: 6
- Plant response rating, B. signalgrass [6, 34]: 7
- B. signalgrass plant response rating [6, 21]: 9
- B. signalgrass plant response rating [6, 37]: 3
- B. signalgrass plant response rating ([6]; Rate 500 g/ha, Postemergence, scale of 0 to 10 where 0 is no effect and 10 is complete control): 6
- Wild oats plant response rating [7, 17]: 0
- Wild oats plant response rating [7, 18]: 9
- Wild oats plant response rating (0 to 10 scale) [7, 19]: 9
- Plant response rating, Wild oats [7, 20]: 9
- Wild oats plant response rating [7, 21]: 9
- Wild oats plant response rating [7, 22]: 0
- Plant response rating, Wild oats [7, 23]: 3
- Wild oats plant response rating [7, 24]: 3
- Corn plant response rating [8, 17]: 0
- Corn plant response rating [8, 32]: 0
- Corn plant response rating [8, 18]: 0
- Plant response rating, Corn [8, 33]: 0
- Plant response rating, Corn [8, 34]: 6
- Corn plant response rating [8, 21]: 9
- Corn plant response rating [8, 22]: 0
- Corn plant response rating [8, 24]: 0
- Bedstraw plant response rating [9, 36]: 0
- Bedstraw plant response rating [9, 32]: 2
- Bedstraw plant response rating [9, 18]: 0
- Plant response rating, Bedstraw [9, 33]: 5
- Plant response rating, Bedstraw [9, 34]: 8
- Bedstraw plant response rating [9, 21]: 8
- Bedstraw plant response rating [9, 37]: 0
- Bedstraw plant response rating [9, 24]: 6
- Rape plant response rating [10, 17]: 0
- Rape plant response rating [10, 32]: 0
- Rape plant response rating [10, 18]: 0
- Plant response rating, Rape [10, 33]: 0
- Plant response rating, Rape [10, 34]: 7
- Rape plant response rating [10, 21]: 9
- Rape plant response rating [10, 22]: 0
- Rape plant response rating [10, 24]: 2
- Sugarbeets plant response rating [11, 17]: 0
- Sugarbeets plant response rating [11, 18]: 3
- Sugarbeets plant response rating (0 to 10 scale) [11, 19]: 3
- Plant response rating, Sugarbeets [11, 20]: 4
- Sugarbeets plant response rating [11, 21]: 8
- Sugarbeets plant response rating [11, 22]: 0
- Plant response rating, Sugarbeets [11, 23]: 2
- Sugarbeets plant response rating [11, 24]: 2
- Nutsedge plant response rating [12, 17]: 3
- Nutsedge plant response rating [12, 32]: 4
- Nutsedge plant response rating [12, 18]: 0
- Plant response rating, Nutsedge [12, 33]: 0
- Plant response rating, Nutsedge [12, 34]: 0
- Nutsedge plant response rating [12, 21]: 0
- Nutsedge plant response rating [12, 22]: 0
- Nutsedge plant response rating [12, 24]: 4
- Rice plant response rating [13, 25]: 0
- Rice plant response rating [13, 26]: 0
- Plant response rating, Rice [13, 38]: 0
- Rice plant response rating [13, 27]: 0
- Plant response rating, Rice [13, 28]: 0
- Rice plant response rating [13, 29]: 0
- Rice plant response rating [13, 30]: 0
- Rice plant response rating [13, 31]: 0
- S. Flatsedge plant response rating [14, 25]: 0
- S. Flatsedge plant response rating ([14]; Pre-emergence, Rate 1000 g/ha, scale 0 to 10 (0 no effect, 10 complete control)): 0
- S. Flatsedge plant response rating [14, 26]: 0
- Plant response rating, S. Flatsedge [14, 38]: 0
- S. Flatsedge plant response rating [14, 27]: 0
- Plant response rating, S. Flatsedge [14, 28]: 0
- S. Flatsedge plant response rating [14, 29]: 0
- S. Flatsedge plant response rating [14, 31]: 0
- Redroot pigweed plant response rating [15, 17]: 0
- Plant response rating, Redroot pigweed [15, 33]: 3
- Plant response rating, Redroot pigweed [15, 34]: 10
- Redroot pigweed plant response rating [15, 21]: 10
- Redroot pigweed plant response rating [15, 22]: 0
- Plant response rating, Redroot pigweed [15, 35]: 0
- Redroot pigweed plant response rating [15, 24]: 3
- Crabgrass plant response rating [16, 17]: 8
- Crabgrass plant response rating [16, 32]: 8
- Crabgrass plant response rating [16, 18]: 7
- Plant response rating, Crabgrass [16, 33]: 9
- Plant response rating, Crabgrass [16, 34]: 9
- Crabgrass plant response rating [16, 21]: 10
- Crabgrass plant response rating [16, 22]: 4
- Crabgrass plant response rating [16, 24]: 9
